Source: PMC6416464 (Drug Metabolism Letters, 2018)
pIC50: −log10 of the molar value.

Experiments:
[1] = Metabolic stability, incubation with human liver cytosol; format: in vitro ADME; settings: 1 µM test compound, 1 mg/mL protein
CYP3A4 [2] = target: T1, CYP3A4 (Homo sapiens, UniProt P08684); settings: human, microsomes, 10 µM, pH 7.4
[3] = cited from earlier work
CYP3A4 [4] = target: T1, CYP3A4; assay: in vitro; settings: microsomes, pH 7.4, % Inhibition of Control Activity CYP3A4 (substrate, testosterone)
CYP3A4 [5] = target: T1, CYP3A4; assay: in vitro; settings: microsomes, pH 7.4
[6] = Metabolic stability, incubation with human liver microsomes; settings: 1 µM test compound, 0.5 mg/mL protein
CYP1A2 = target: T2, CYP1A2 (Homo sapiens, UniProt P05177); assay: CYP inhibition in human liver microsomes, CYP1A2
T2 sequence (P05177 1-516): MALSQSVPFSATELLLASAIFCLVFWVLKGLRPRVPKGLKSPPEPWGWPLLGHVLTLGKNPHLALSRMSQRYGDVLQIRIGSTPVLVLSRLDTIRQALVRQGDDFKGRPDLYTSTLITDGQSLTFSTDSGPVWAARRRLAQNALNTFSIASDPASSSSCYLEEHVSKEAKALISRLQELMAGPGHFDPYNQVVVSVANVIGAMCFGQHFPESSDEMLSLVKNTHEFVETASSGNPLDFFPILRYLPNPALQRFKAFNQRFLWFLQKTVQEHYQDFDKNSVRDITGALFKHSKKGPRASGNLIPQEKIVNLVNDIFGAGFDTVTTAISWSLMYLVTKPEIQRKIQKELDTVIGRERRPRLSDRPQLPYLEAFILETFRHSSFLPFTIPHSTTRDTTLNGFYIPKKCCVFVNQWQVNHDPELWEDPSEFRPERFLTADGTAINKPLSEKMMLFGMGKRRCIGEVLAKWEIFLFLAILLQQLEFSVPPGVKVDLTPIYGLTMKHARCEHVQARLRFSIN

CYP2C8 = target: T3, CYP2C8 (Homo sapiens, UniProt P10632); assay: CYP inhibition in human liver microsomes, CYP2C8; settings: for inhibition at 2 µM / inhibition at 10 µM: human, human liver microsomes, pH 7.4, probe paclitaxel
T3 sequence (P10632 1-490): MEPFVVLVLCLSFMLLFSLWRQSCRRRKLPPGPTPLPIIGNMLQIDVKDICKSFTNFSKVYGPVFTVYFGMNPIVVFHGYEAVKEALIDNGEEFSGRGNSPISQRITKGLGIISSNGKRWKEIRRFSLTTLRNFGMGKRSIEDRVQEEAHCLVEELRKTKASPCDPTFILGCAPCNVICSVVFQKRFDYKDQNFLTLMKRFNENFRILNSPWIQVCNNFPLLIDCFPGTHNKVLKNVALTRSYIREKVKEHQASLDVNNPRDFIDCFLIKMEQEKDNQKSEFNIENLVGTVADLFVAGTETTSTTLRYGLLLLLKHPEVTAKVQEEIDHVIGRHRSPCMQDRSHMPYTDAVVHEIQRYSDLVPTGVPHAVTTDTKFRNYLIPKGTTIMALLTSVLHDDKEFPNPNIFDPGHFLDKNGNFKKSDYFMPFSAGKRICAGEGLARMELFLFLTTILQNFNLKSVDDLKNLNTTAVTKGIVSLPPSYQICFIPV

CYP2C9 = CYP2C9 (Homo sapiens, UniProt P11712); assay: CYP inhibition in human liver microsomes, CYP2C9; settings: for % Inhibition of Control Activity CYP2C9: inhibitor 10 µM, HLM, NI: No Inhibitin, 10 µM
Chain of CYP2C9 (P11712 whole entry): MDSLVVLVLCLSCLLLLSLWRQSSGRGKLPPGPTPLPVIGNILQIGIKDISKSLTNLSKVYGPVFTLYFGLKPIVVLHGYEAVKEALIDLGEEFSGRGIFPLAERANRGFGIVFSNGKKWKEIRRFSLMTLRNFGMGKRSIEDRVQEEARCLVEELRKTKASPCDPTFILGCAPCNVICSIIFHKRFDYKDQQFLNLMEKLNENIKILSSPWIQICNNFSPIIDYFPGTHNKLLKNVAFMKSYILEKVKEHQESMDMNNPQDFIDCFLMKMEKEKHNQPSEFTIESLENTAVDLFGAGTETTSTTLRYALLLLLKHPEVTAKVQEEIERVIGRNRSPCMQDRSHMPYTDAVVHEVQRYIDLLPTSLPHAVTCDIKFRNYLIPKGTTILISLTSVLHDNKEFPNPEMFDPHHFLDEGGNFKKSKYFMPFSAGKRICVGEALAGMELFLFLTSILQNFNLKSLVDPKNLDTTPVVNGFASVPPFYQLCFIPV

CYP2C19 = CYP2C19 (Homo sapiens, UniProt P33261); assay: CYP inhibition in human liver microsomes, CYP2C19
Chain of CYP2C19 (P33261 whole entry): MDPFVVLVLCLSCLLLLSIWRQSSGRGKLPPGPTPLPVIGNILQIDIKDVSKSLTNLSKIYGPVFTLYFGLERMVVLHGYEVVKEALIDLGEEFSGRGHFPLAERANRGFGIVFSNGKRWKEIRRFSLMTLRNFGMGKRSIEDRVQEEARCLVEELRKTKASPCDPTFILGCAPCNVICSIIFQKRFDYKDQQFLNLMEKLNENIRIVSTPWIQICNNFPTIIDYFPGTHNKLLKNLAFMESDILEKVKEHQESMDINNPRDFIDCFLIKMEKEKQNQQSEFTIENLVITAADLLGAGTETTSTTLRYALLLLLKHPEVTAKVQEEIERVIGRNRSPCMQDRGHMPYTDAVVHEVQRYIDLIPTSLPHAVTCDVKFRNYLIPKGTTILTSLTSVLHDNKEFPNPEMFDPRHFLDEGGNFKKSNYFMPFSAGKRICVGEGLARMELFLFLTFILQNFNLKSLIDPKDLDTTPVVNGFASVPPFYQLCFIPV

rCYP1A2 = target: T4, rCYP1A2 (Homo sapiens, UniProt P05177); assay: Metabolic stability / reaction phenotyping with recombinant human CYP1A2; settings: for % Metabolized at 30 min Incubation with Human Liver Fractions/Enzymes rCYP1A2: 1 µM test compound, 100 pmol/mL; for % Contribution of CYP Enzymes (fmCYP) in Metabolism, CYP1A2 / Predicted Microsomal Clint, CYP1A2 / rCYP Clint, CYP1A2: human, recombinant human CYP1A2, 1 µM, pH 7.4
T4 sequence (P05177 1-516): T2 sequence (P05177 1-516)

rCYP2C8 = target: T5, rCYP2C8 (Homo sapiens, UniProt P10632); assay: Metabolic stability / reaction phenotyping with recombinant human CYP2C8; settings: for % Metabolized at 30 min Incubation with Human Liver Fractions/Enzymes rCYP2C8: 1 µM test compound, 100 pmol/mL
T5 sequence (P10632 1-490): T3 sequence (P10632 1-490)

rCYP2C9 = rCYP2C9 (Homo sapiens, UniProt P11712); assay: Metabolic stability / reaction phenotyping with recombinant human CYP2C9; settings: for % Metabolized at 30 min Incubation with Human Liver Fractions/Enzymes rCYP2C9: 1 µM test compound, 100 pmol/mL; for % Contribution of CYP Enzymes (fmCYP) in Metabolism, CYP2C9 / Predicted Microsomal Clint, CYP2C9 / rCYP Clint, CYP2C9: human, recombinant human CYP2C9, 1 µM, pH 7.4
Chain of rCYP2C9 (P11712 whole entry): as the sequence (P11712 whole entry) above

rCYP2D6 = rCYP2D6 (Homo sapiens, UniProt P10635); assay: Metabolic stability / reaction phenotyping with recombinant human CYP2D6; settings: for % Metabolized at 30 min Incubation with Human Liver Fractions/Enzymes rCYP2D6: 1 µM test compound, 100 pmol/mL; for % Contribution of CYP Enzymes (fmCYP) in Metabolism, CYP2D6 / Predicted Microsomal Clint, CYP2D6 / rCYP Clint, CYP2D6: human, recombinant human CYP2D6, 1 µM, pH 7.4
Chain of rCYP2D6 (P10635 whole entry): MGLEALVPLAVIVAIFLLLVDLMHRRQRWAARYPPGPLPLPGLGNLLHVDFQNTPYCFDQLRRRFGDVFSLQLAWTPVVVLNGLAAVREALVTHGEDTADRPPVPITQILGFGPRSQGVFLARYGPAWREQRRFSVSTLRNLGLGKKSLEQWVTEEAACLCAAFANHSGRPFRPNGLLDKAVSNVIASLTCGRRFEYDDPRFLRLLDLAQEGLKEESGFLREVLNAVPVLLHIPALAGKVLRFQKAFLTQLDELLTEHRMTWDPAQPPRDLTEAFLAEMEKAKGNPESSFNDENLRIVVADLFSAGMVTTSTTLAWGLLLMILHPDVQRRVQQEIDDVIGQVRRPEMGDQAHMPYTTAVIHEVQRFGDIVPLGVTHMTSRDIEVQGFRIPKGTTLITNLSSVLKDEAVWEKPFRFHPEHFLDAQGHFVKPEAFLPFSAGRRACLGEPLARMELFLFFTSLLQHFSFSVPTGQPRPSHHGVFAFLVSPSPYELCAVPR

rCYP2C19 = rCYP2C19 (Homo sapiens, UniProt P33261); assay: Metabolic stability / reaction phenotyping with recombinant human CYP2C19; settings: for % Metabolized at 30 min Incubation with Human Liver Fractions/Enzymes rCYP2C19: 1 µM test compound, 100 pmol/mL; for % Contribution of CYP Enzymes (fmCYP) in Metabolism, CYP2C19 / Predicted Microsomal Clint, CYP2C19 / rCYP Clint, CYP2C19: human, recombinant human CYP2C19, 1 µM, pH 7.4
Chain of rCYP2C19 (P33261 whole entry): as the sequence (P33261 whole entry) above

rCYP3A4 = rCYP3A4 (Homo sapiens, UniProt P08684)
Chain of rCYP3A4 (P08684 whole entry): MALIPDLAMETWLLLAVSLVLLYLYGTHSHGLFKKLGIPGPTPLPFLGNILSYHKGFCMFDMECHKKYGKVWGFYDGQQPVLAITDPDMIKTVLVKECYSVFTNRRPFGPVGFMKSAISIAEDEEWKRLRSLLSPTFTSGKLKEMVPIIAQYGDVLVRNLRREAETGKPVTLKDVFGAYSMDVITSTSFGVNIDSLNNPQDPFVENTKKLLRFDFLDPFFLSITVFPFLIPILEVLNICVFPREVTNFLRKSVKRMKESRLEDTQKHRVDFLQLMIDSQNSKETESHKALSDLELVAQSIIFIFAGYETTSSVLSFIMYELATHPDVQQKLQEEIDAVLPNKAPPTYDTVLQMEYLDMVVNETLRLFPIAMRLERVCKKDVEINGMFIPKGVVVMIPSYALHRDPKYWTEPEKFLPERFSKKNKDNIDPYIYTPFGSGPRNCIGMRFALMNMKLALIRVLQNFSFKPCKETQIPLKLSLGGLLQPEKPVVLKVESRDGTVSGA

[7] = cited from earlier work; remark: listed apart in the source
CYP3A4 [8] = target: T1, CYP3A4; assay: biochemical
[9] = pulmonary tuberculosis patients; cited from earlier work
[10] = inhibitor 10 µM, HLM, NI: No Inhibitin, 10 µM
[11] = human, recombinant human CYP2C8, 1 µM, pH 7.4
[12] = human, recombinant enzyme, pH 7.4

T1 sequence (P08684 2-503): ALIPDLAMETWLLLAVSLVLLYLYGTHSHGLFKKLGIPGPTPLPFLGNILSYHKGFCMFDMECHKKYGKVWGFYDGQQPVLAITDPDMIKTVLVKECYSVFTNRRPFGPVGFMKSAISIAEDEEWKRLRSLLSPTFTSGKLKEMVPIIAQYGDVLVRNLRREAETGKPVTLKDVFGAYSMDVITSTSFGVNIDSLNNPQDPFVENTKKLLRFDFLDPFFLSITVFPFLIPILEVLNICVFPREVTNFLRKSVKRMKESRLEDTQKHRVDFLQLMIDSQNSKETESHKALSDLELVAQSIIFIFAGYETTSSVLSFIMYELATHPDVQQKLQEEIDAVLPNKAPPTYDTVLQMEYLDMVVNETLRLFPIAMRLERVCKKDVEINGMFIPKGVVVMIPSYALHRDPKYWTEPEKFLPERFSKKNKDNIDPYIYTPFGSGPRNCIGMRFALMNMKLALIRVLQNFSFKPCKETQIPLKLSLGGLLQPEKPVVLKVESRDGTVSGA

CCC[S+]([O-])c1ccc2[nH]c(NC(=O)OC)nc2c1 (stereo not drawn) [Albendazole sulfoxide, albendazole sulfoxide]
% Metabolized at 30 min Incubation with Human Liver Fractions/Enzymes Cytosol [1]: 0.20%
% Inhibition of Control Activity CYP3A4 (substrate, testosterone) (CYP3A4 [2]): 4.82%
increase of AUC ([3]; with transport inhibitors such as verapamil, quinidine and ivermectin): > 50%
inhibition at 2 µM (CYP3A4 [4]): 2.48%
inhibition at 2 µM (CYP3A4 [5]): < 0%
inhibition at 10 µM (CYP3A4 [5]): < 0%
% Metabolized at 30 min Incubation with Human Liver Fractions/Enzymes HLM [6]: 4.23%
% Inhibition of Control Activity CYP1A2 (CYP1A2; [10]): 22.20%
inhibition at 2 µM (CYP2C8): < 0%
inhibition at 10 µM (CYP2C8): < 0%
% Inhibition of Control Activity CYP2C9 (CYP2C9): 9.49%

CCCSc1ccc2nc(NC(=O)OC)[nH]c2c1 [Albendazole, albendazole, reference compound]
% Metabolized at 30 min Incubation with Human Liver Fractions/Enzymes Cytosol [1]: 0.00%
increase of exposure ([3]; with CYP3A4 inhibitor grapefruit juice): 3.2 fold
% Metabolized at 30 min Incubation with Human Liver Fractions/Enzymes HLM [6]: 50.06%
inhibition at 2 µM (CYP2C8): < 0%
inhibition at 10 µM (CYP2C8): < 0%
% Inhibition of Control Activity CYP2C9 (CYP2C9): 12.40%
% Inhibition of Control Activity CYP2C19 (CYP2C19; [10]): 4.20%
% Metabolized at 30 min Incubation with Human Liver Fractions/Enzymes rCYP1A2 (rCYP1A2): 98.92%
% Contribution of CYP Enzymes (fmCYP) in Metabolism, CYP1A2 (rCYP1A2): 74.79%
Predicted Microsomal Clint, CYP1A2 (rCYP1A2): 78.510 µL/min/mg Protein
rCYP Clint, CYP1A2 (rCYP1A2): 1.510 µL/min/pmol
% Metabolized at 30 min Incubation with Human Liver Fractions/Enzymes rCYP2C8 (rCYP2C8): 2.43%
% Contribution of CYP Enzymes (fmCYP) in Metabolism, CYP2C8 (rCYP2C8; [11]): 0.50%
Predicted Microsomal Clint, CYP2C8 (rCYP2C8; [11]): 0.525 µL/min/mg Protein
rCYP Clint, CYP2C8 (rCYP2C8; [11]): 0.008 µL/min/pmol
% Metabolized at 30 min Incubation with Human Liver Fractions/Enzymes rCYP2C9 (rCYP2C9): 5.96%
% Contribution of CYP Enzymes (fmCYP) in Metabolism, CYP2C9 (rCYP2C9): 1.87%
Predicted Microsomal Clint, CYP2C9 (rCYP2C9): 1.966 µL/min/mg Protein
rCYP Clint, CYP2C9 (rCYP2C9): 0.020 µL/min/pmol
% Metabolized at 30 min Incubation with Human Liver Fractions/Enzymes rCYP2D6 (rCYP2D6): 64.92%
% Contribution of CYP Enzymes (fmCYP) in Metabolism, CYP2D6 (rCYP2D6): 3.33%
Predicted Microsomal Clint, CYP2D6 (rCYP2D6): 3.491 µL/min/mg Protein
rCYP Clint, CYP2D6 (rCYP2D6): 0.349 µL/min/pmol
% Metabolized at 30 min Incubation with Human Liver Fractions/Enzymes rCYP2C19 (rCYP2C19): 95.76%
% Contribution of CYP Enzymes (fmCYP) in Metabolism, CYP2C19 (rCYP2C19): 19.06%
Predicted Microsomal Clint, CYP2C19 (rCYP2C19): 20.011 µL/min/mg Protein
rCYP Clint, CYP2C19 (rCYP2C19): 1.053 µL/min/pmol

CSc1nc2cc(Cl)c(Oc3cccc(Cl)c3Cl)cc2[nH]1 [Triclabendazole, reference compound]
% Metabolized at 30 min Incubation with Human Liver Fractions/Enzymes Cytosol [1]: 12.40%
% Metabolized at 30 min Incubation with Human Liver Fractions/Enzymes rCYP3A4 (rCYP3A4; 1 µM test compound, 100 pmol/mL, 30 min): 11.70%
Predicted Microsomal Clint, CYP3A4 (rCYP3A4; human, pH 7.4): 4.604 µL/min/mg Protein
% Contribution of CYP Enzymes (fmCYP) in Metabolism, CYP3A4 (rCYP3A4; [12]): 4.02%
rCYP Clint, CYP3A4 (rCYP3A4; [12]): 0.041 µL/min/pmol
Cmax ([7]; human patients at therapeutic doses of triclabendazole): 1.16 µM
peak concentration ([7]; humans, standard dose of triclabendazole of 10 mg/kg): 1.16 µM
inhibition at 2 µM (CYP3A4 [4]): 13.5%
inhibition at 10 µM (CYP3A4 [4]): 52.9%
inhibition at 2 µM (CYP3A4 [5]): < 0%
inhibition at 10 µM (CYP3A4 [5]): < 0%
pIC50 (CYP3A4 [8]): 4.82
% Metabolized at 30 min Incubation with Human Liver Fractions/Enzymes HLM [6]: 51.68%
pIC50 (CYP1A2): 5.97
pIC50 (CYP2C8; IC50 CYP 2C8, HLM): 5.48
inhibition at 2 µM (CYP2C8): 7.09%
inhibition at 10 µM (CYP2C8): 79.7%
pIC50 (CYP2C9): 5.93
pIC50 (CYP2C19): 6.60
% Metabolized at 30 min Incubation with Human Liver Fractions/Enzymes rCYP1A2 (rCYP1A2): 97.14%
% Contribution of CYP Enzymes (fmCYP) in Metabolism, CYP1A2 (rCYP1A2): 53.74%
Predicted Microsomal Clint, CYP1A2 (rCYP1A2): 61.600 µL/min/mg Protein
rCYP Clint, CYP1A2 (rCYP1A2): 1.185 µL/min/pmol
% Metabolized at 30 min Incubation with Human Liver Fractions/Enzymes rCYP2C8 (rCYP2C8): 0.00%
% Metabolized at 30 min Incubation with Human Liver Fractions/Enzymes rCYP2C9 (rCYP2C9): 55.00%
% Contribution of CYP Enzymes (fmCYP) in Metabolism, CYP2C9 (rCYP2C9): 22.29%
Predicted Microsomal Clint, CYP2C9 (rCYP2C9): 25.548 µL/min/mg Protein
rCYP Clint, CYP2C9 (rCYP2C9): 0.266 µL/min/pmol
% Metabolized at 30 min Incubation with Human Liver Fractions/Enzymes rCYP2D6 (rCYP2D6): 73.66%
% Contribution of CYP Enzymes (fmCYP) in Metabolism, CYP2D6 (rCYP2D6): 3.88%
Predicted Microsomal Clint, CYP2D6 (rCYP2D6): 4.448 µL/min/mg Protein
rCYP Clint, CYP2D6 (rCYP2D6): 0.445 µL/min/pmol
% Metabolized at 30 min Incubation with Human Liver Fractions/Enzymes rCYP2C19 (rCYP2C19): 94.55%
% Contribution of CYP Enzymes (fmCYP) in Metabolism, CYP2C19 (rCYP2C19): 16.07%
Predicted Microsomal Clint, CYP2C19 (rCYP2C19): 18.415 µL/min/mg Protein
rCYP Clint, CYP2C19 (rCYP2C19): 0.969 µL/min/pmol

CC(=O)NC[C@H]1CN(c2ccc(N3CC[S+]([O-])CC3)c(F)c2)C(=O)O1 [sutezolid sulfoxide]
metabolite to parent (sutezolid sulfoxide/ sutezolid) median concentration ratio [9]: 7.1
